The results in this text go back to ChEMBL document CHEMBL1136988, “1-amino-4-benzylphthalazines as orally bioavailable smoothened antagonists with antitumor activity” (J Med Chem, 2009).

For series [1], the target named is T1, Protein smoothened (Mus musculus, UniProt P56726). The series is classed as cell-based, TM3.
Description: Inhibition of Smoothened receptor in mouse TM3 cells transfected with pTA-8xGli-Luc reporter gene assessed as inhibition of 25 nM 3-chloro-4,7-difluoro-N-(4-methoxy-3-(pyridin-4-yl)benzyl)-N-(4-(methylamino)cyclohexyl)benzo[b]thiophene-2-carboxamide-induced Hedgehog pathway activation by Gli shift assay
Series [2] has as its target T1, Protein smoothened. The experiment in a line: Inhibition of Smoothened receptor in mouse TM3 cells transfected with pTA-8xGli-Luc reporter gene assessed as inhibition of 1 nM 3-chloro-4,7-difluoro-N-(4-methoxy-3-(pyridin-4-yl)benzyl)-N-(4-(methylamino)cyclohexyl)benzo[b]thiophene-2-carboxamide-induced Hedgehog pathway activation by Gli shift assay. The series is classed as cell-based. A general note: In a reporter assay the amount or activity of a reporter protein is the signal.

The target in series [3] is T1, Protein smoothened. The experiment in a line: Displacement of [3H]3-chloro-4,7-difluoro-N-(4-methoxy-3-(pyridin-4-yl)benzyl)-N-(4-(methylamino)cyclohexyl)benzo[b]thiophene-2-carboxamide from mouse Smoothened receptor expressed in CHO-K1 cells by membrane filter binding assay. The series is classed as cell-based.
Series [4] addresses Protein smoothened (Homo sapiens, UniProt Q99835). Description: Displacement of [3H]3-chloro-4,7-difluoro-N-(4-methoxy-3-(pyridin-4-yl)benzyl)-N-(4-(methylamino)cyclohexyl)benzo[b]thiophene-2-carboxamide from human Smoothened receptor expressed in CHO-K1 cells by membrane filter binding assay. The format is cell-based. A general note: In a radioligand displacement assay an active substance lowers the binding of a labelled ligand.

Series [5] is described as follows: AUC (0 to infinity) in nude mouse plasma at 1 mg/kg, iv after 24 hrs. The series is classed as ADME, organism-based. The arrangement: time infinity, dose 1 mg/kg, route intravenous.
Series [6] can be described thus: AUC (0 to infinity) in nude mouse plasma at 5 mg/kg, po after 24 hrs. The format is ADME, organism-based. The arrangement: time infinity, dose 5 mg/kg, route oral.
The nature of series [7]: AUC (0 to infinity) in nude mouse brain at 5 mg/kg, po after 24 hrs. The arrangement: dose 5 mg/kg, route oral, time infinity. The series is classed as ADME, organism-based.
Series [8] in a line: Ratio of AUC (0 to infinity) in brain to AUC (0 to infinity) in plasma of nude mouse at 5 mg/kg, po after 24 hrs. Also on record: dose 5 mg/kg, route oral. The format is ADME, organism-based. Particulars: read-out: Ratio AUC.
The nature of series [9]: Clearance in nude mouse plasma at 1 mg/kg, iv after 24 hrs. The series is classed as ADME, organism-based. Also on record: dose 1 mg/kg, route intravenous.
Series [10] is described as follows: Volume of distribution at steady state in nude mouse plasma at 1 mg/kg, iv after 24 hrs. The series is classed as ADME, organism-based. Also on record: dose 1 mg/kg, route intravenous. The conditions noted are these: read-out: Vdss.
Series [11] in a line: Half life in nude mouse plasma at 1 mg/kg, iv after 24 hrs. Also on record: dose 1 mg/kg, route intravenous. The series is classed as ADME, organism-based.
Series [12] in a line: Cmax in nude mouse plasma at 5 mg/kg, po after 24 hrs. The series is classed as ADME, organism-based. The arrangement: dose 5 mg/kg, route oral.
Series [13] is described as follows: Cmax in nude mouse brain at 5 mg/kg, po after 24 hrs. The series is classed as ADME, organism-based. Also on record: dose 5 mg/kg, route oral.
Series [14] can be described thus: Ratio of Cmax in brain to Cmax in plasma of nude mouse at 5 mg/kg, po after 24 hrs. The series is classed as ADME, organism-based. The arrangement: dose 5 mg/kg, route oral. Particulars: read-out: Ratio_Cmax_brain/plasma.
A short description of series [15]: Tmax in nude mouse plasma at 5 mg/kg, po after 24 hrs. Also on record: dose 5 mg/kg, route oral. The series is classed as ADME, organism-based.
Series [16] in a line: Oral bioavailability in nude mouse plasma at 5 mg/kg after 24 hrs. The series is classed as ADME, organism-based.
Series [17] deals with Mus musculus. The experiment in a line: Hepatic blood flow in nude mouse at 1 mg/kg, iv. The series is classed as ADME, organism-based, Liver. Also on record: dose 1 mg/kg, route intravenous. The conditions noted are these: in vivo.
The test system of series [18] is Mus musculus. The experiment in a line: Total body water content in nude mouse at 1 mg/kg, iv. The format is ADME, organism-based. The arrangement: dose 1 mg/kg, route intravenous. The conditions noted are these: in vivo.
A short description of series [19]: Antitumor activity against mouse Ptch+/- p53-/- medulloblastoma cells xenografted Harlan nu/nu mouse at 5 mg/kg, po qd administered after 7 days tumor implantation measured after 12 days relative to control. The series is classed as functional, Medulloblastoma cell.
Series [20] can be described thus: Antitumor activity against mouse Ptch+/- p53-/- medulloblastoma cells xenografted Harlan nu/nu mouse at 10 mg/kg, po qd administered after 7 days tumor implantation measured after 12 days relative to control. The series is classed as functional, Medulloblastoma cell.
Series [21] is described as follows: Antitumor activity against mouse Ptch+/- p53-/- medulloblastoma cells xenografted Harlan nu/nu mouse at 20 mg/kg, po qd administered after 7 days tumor implantation measured after 12 days relative to control. The series is classed as functional, Medulloblastoma cell.
A short description of series [22]: Antitumor activity against mouse Ptch+/- p53-/- medulloblastoma cells xenografted Harlan nu/nu mouse at 40 mg/kg, po qd administered after 7 days tumor implantation measured after 12 days relative to control. The format is functional, Medulloblastoma cell.
A short description of series [23]: Antitumor activity against mouse Ptch+/- p53-/- medulloblastoma cells xenografted Harlan nu/nu mouse at 5 mg/kg, po bid administered after 7 days tumor implantation measured after 12 days relative to control. The series is classed as functional, Medulloblastoma cell.
The nature of series [24]: Antitumor activity against mouse Ptch+/- p53-/- medulloblastoma cells xenografted Harlan nu/nu mouse at 10 mg/kg, po bid administered after 7 days tumor implantation measured after 12 days relative to control. The format is functional, Medulloblastoma cell.
Series [25] in a line: Antitumor activity against mouse Ptch+/- p53-/- medulloblastoma cells xenografted Harlan nu/nu mouse assessed as tumor regression at 20 mg/kg, po bid administered after 7 days tumor implantation measured after 12 days. The series is classed as functional, Medulloblastoma cell.
A short description of series [26]: Antitumor activity against mouse Ptch+/- p53-/- medulloblastoma cells xenografted Harlan nu/nu mouse assessed as tumor regression at 40 mg/kg, po bid administered after 7 days tumor implantation measured after 12 days. The format is functional, Medulloblastoma cell.
The test system of series [27] is Medulloblastoma cell. The experiment in a line: Antitumor activity against mouse Ptch+/- p53-/- medulloblastoma cells xenografted po dosed Harlan nu/nu mouse assessed as tumor regression administered after 7 days tumor implantation measured after 12 days. The format is functional, organism-based.
The test system of series [28] is Mus musculus. Description: Toxicity in mouse Ptch+/- p53-/- medulloblastoma cells xenografted Harlan nu/nu mouse at 5 to 40 mg/kg, po qd administered after 7 days tumor implantation measured after 12 days. The series is classed as organism-based. The arrangement: dose 5-40 mg/kg, route oral. The conditions noted are these: in vivo, 288 h.
The subject of series [29] is Mus musculus. Description: Toxicity in mouse Ptch+/- p53-/- medulloblastoma cells xenografted Harlan nu/nu mouse at 5 to 40 mg/kg, po bid administered after 7 days tumor implantation measured after 12 days. The format is organism-based. Also on record: dose 5-40 mg/kg, route oral. The conditions noted are these: in vivo, 288 h.
Series [30] has as its system Mus musculus. Description: Toxicity in mouse Ptch+/- p53-/- medulloblastoma cells xenografted Harlan nu/nu mouse assessed as change in body weight at 5 to 40 mg/kg, po qd administered after 7 days tumor implantation measured after 12 days. Particulars: in vivo, 288 h. The arrangement: dose 5-40 mg/kg, route oral. The format is organism-based.
In series [31] the test system is Mus musculus. Description: Toxicity in mouse Ptch+/- p53-/- medulloblastoma cells xenografted Harlan nu/nu mouse assessed as change in body weight at 5 to 40 mg/kg, po bid administered after 7 days tumor implantation measured after 12 days. The series is classed as organism-based. Also on record: dose 5-40 mg/kg, route oral. Particulars: in vivo, 288 h.
Series [32] deals with Medulloblastoma cell. The experiment in a line: Inhibition of Gli mRNA expression in mouse medulloblastoma cells at 5 mg/kg, po by RT-PCR. Particulars: TDE = time-dependent effect. Also on record: dose 5 mg/kg. The format is functional, organism-based.
The subject of series [33] is Medulloblastoma cell. Description: Inhibition of Gli mRNA expression in mouse medulloblastoma cells at 40 mg/kg, po by RT-PCR. Also on record: dose 40 mg/kg. Particulars: TDE = time-dependent effect. The format is functional, organism-based.
For series [34], the system named is Medulloblastoma cell. The experiment in a line: Inhibition of Gli mRNA expression in mouse medulloblastoma cells after 1 to 24 hrs by RT-PCR. The format is functional.
The nature of series [35]: Tmax in nude mouse brain at 5 mg/kg, po after 24 hrs. The format is ADME, organism-based. Also on record: dose 5 mg/kg, route oral.

The structures appear in SMILES notation.

The term IC50 denotes the midpoint of a concentration-inhibition curve. A word on the AUC(0-inf): it is total exposure, with the tail of the curve extrapolated. Higher therefore signals more exposure. As usually defined, the clearance is the rate of elimination divided by the concentration. The low end stands for inefficient removal, the high end for efficient removal. One may read the half-life as how long it takes for the measured level to halve. High values mean slow decline, low ones rapid decline. One may read the Cmax as the maximum level reached in the sampled fluid or tissue. As usually defined, the Tmax is the time at which the peak concentration occurs. The bioavailability is dose-corrected exposure relative to a reference, in per cent. Read a high bioavailability as good availability. One may read the T/C as the ratio of treated to control.

T1 sequence (P56726 whole entry): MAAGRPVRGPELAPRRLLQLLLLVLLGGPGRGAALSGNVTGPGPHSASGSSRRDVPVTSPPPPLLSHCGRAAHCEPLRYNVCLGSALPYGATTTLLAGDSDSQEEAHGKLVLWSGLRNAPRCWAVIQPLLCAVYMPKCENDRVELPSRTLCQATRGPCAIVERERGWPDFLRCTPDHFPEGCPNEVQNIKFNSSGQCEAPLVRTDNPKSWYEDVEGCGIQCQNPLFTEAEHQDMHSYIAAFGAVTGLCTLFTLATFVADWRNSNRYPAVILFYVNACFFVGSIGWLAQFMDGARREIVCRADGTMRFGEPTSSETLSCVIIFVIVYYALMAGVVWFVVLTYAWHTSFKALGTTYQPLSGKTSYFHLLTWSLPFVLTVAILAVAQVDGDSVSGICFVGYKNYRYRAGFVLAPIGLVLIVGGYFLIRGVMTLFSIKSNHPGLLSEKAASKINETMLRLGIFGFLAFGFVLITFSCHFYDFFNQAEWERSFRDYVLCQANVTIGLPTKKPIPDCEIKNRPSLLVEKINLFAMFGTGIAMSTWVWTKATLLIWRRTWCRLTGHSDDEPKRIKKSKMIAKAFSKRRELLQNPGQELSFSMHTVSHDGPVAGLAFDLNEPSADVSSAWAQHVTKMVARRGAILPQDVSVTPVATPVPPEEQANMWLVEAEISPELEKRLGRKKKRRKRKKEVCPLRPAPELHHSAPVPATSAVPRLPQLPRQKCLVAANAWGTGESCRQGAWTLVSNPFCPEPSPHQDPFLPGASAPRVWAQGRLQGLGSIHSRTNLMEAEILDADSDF
Protein smoothened (Homo sapiens, UniProt Q99835), sequence (Q99835 whole entry): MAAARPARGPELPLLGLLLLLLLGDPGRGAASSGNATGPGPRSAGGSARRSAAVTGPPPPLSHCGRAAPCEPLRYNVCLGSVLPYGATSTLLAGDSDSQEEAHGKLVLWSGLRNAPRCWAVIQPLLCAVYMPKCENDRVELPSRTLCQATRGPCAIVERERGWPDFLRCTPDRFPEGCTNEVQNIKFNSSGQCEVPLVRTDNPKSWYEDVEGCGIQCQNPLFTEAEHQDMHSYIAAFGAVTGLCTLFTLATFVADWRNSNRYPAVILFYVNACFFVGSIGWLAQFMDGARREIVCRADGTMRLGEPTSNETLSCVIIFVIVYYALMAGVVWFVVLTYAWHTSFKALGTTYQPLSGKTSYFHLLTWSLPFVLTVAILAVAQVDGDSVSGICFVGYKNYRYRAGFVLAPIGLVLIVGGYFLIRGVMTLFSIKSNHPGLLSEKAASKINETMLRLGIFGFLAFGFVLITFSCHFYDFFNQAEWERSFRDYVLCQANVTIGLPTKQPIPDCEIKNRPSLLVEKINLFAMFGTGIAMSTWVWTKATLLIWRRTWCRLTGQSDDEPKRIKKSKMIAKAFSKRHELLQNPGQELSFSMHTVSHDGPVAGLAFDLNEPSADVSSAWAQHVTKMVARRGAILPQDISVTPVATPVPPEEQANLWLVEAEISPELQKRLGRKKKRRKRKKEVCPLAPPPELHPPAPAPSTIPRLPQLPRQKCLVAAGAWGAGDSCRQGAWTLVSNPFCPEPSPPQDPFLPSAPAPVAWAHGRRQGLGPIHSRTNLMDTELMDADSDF

Turning to `CC(C)(O)c1ccc(N2CCN(c3nnc(Cc4ccccc4)c4ccccc34)CC2)nc1`, the half-maximal inhibitory concentration (IC50) in series [1] amounted to 0.035 µM; in series [2] it was 0.0027 µM; in series [3], 0.005 µM; in series [4], 0.008 µM. Also, the values for the area under the curve AUC(0-inf) in [5], in series [6] and in series [7] were 7.23 µM·h, 26.5 µM·h and 8.82 µM·h, respectively. Besides, the Kp at 24 h in [8] is 0.33; in series [14], 0.15. The compound further registered a clearance in series [9] of 0.314 L/h/kg. Further, the Vd in series [10] turned out to be 0.2 L/kg. The same compound showed a half-life in series [11] of 31.8 min. Moreover, the Cmax in series [12] was 15.7 µM; in series [13] it was 2.39 µM. In addition, the time of peak concentration (Tmax) in [15] and in [35] was 15 min in each case. This compound registered a bioavailability in series [16] of 73%. The same compound came in with a QH in [17] of 5.4 L/h/kg. For the same compound, the Activity is 0.7 L/kg in series [18]; “Dose-dependent effect” in [27]; “Non-toxic” in series [28]; “Non-toxic” in series [29]; “Non-toxic” in series [30]; “Non-toxic” in series [31]. In addition, the Activity result was “tde” in series [32], “tde” in [33] and “Dose-dependent effect” in [34]. The T/C in [19] was determined as 80%; in series [20] it was 77%; in [21] it was 45%; in [22], 19%; in series [23], 69%; in series [24], 40%. The T/C in series [25] was determined as 15%; in series [26], 71%.
Regarding `N#Cc1ccc(N2CCN(c3nnc(Cc4ccc(C(F)(F)F)cc4)c4ccccc34)CC2)nc1`, the IC50 in series [1] came to 1.24 µM; in series [2] it was 0.366 µM; in series [3], 0.226 µM; in [4] it was 0.185 µM.
With `FC(F)(F)c1ccc(N2CCN(c3nnc(Cc4ccccc4)c4[nH]cnc34)CC2)nc1`, the 50% inhibitory concentration (IC50) in series [1] is 1.55 µM; in series [2] it was 0.724 µM; in [3] it was greater than 5 µM; in series [4], greater than 5 µM.
